Measurements taken from patent publication US8293749B2, “Injectable meclizine formulations and methods” (Genebiology, Inc., priority 2007, dated 2012).
Converted amounts (≈) assume the structure as drawn.

Key:
[1] = Aqueous solubility of meclizine versus pH, 0.1 M citric acid buffer and ddH2O, HPLC; type: physicochemical; conditions: for solubility at 24 h: thermodynamic from solid
Procedure: Citric acid (0.1M) buffer solutions are prepared with pH's of 1.0; 2.0; 3.0; 4.0, and 5.0 in ddH2O (de-oxygenated water by purging with nitrogen gas). 2 ml of each buffer are placed in 4 ml vials and 2 ml ddH2O is placed in a 4 ml vial. 20 mg meclizine HCl is added to each vial. The vials are sealed and are shaken on an orbital shaker for 24 hours at 200 rpm. Following the shaking, the vial contents are filtered through 0.45 μm filters to remove any excess solute. The remaining solution is assayed by HPLC for meclizine content.

[2] = Solubility of meclizine with cyclodextrins in ddH2O, HPLC; type: physicochemical; conditions: alpha-CD 0-100 mg/ml, gamma-CD, HPBCD and SBECD at 200 mg/ml versus no CD
Procedure: FIG. 1A depicts solubility data of meclizine complexed with non-chemically modified cyclodextrins (α-CD at 0-100 mg/ml, γ-CD at 200 mg/ml), chemically modified cyclodextrins (HPBCD and SBECD) at 200 mg/ml, and with no CD complexation in ddH2O. Solutions were prepared by adding excess meclizine to ddH2O samples with varying quantities of the different cyclodextrins. These samples were shaken for 24 hours at 200 rpm. Following the shaking, the vial contents were filtered through 0.45 μm filters to remove any excess solute. The remaining solution was assayed by HPLC for meclizine content.

[3] = physchem; conditions: 25 °C, pH 3, aqueous buffer, thermodynamic from solid, aqueous solubility of meclizine at pH 3.0
Procedure: (§1) Five HPBCD and five SBECD solutions in 0.5 M citric acid buffer (pH of 3.0) are prepared, with HPBCD and SBECD concentrations of 50; 100; 150 and 200 mg/ml. 3 ml of the various buffered HPBCD and SBECD solutions are placed in 4 ml vials. 75-100 mg meclizine is added to each vial, such that excess meclizine is provided. The vials are sealed and are shaken on an orbital shaker for 24 hours at 200 rpm and 25° C. Following the shaking, the vials are filtered through 0.45 μm filters to remove any excess solute. The remaining solution is assayed by HPLC for meclizine content.

[4] = pH-dependent solubility of meclizine cyclodextrin complexes in 0.5 M citric buffer; type: physicochemical; conditions: HPBCD 200 mg/ml, above pH of about 5, compared with non-chemically modified CDs
[5] = physchem; conditions: 25 °C, pH 4, aqueous buffer, thermodynamic from solid, aqueous solubility of meclizine at pH 4.0
Procedure: as §1, with “(pH of 4.0) are prepared,” for “(pH of 3.0) are prepared,”, “concentrations of 0; 50; 100;” for “concentrations of 50; 100;”, “ml vials. 50-100 mg meclizine” for “ml vials. 75-100 mg meclizine”, “meclizine is available. The vials” for “meclizine is provided. The vials”

[6] = tested on: nausea and vomiting; conditions: anti-emetic; cited from earlier work
[7] = Merck Index, 12th Ed, 984; cited from earlier work

Row | Structure (SMILES) | aqueous solubility of meclizine ([1]; 0.1 M citric acid buffer, about pH 5.0, shaken 24 hours) | solubility at 24 h ([1]; aqueous buffer, 0.1 M citric acid buffer, pH 1.0, shaken 24 hours, read-out: aqueous solubility of meclizine) [µg/mL] | solubility at 24 h ([1]; ddH2O (de-oxygenated water), pH 2, water, ddH2O, measured pH of about 2.0, shaken 24 hours, read-out: aqueous solubility of meclizine in ddH2O) [µg/mL] | solubility of meclizine with cyclodextrins [2] | solubility at 24 h [3] [µg/mL] | solubility of meclizine in HPBCD at higher pH [4] | solubility at 24 h [5] [µg/mL] | duration of action [6] | water solubility [7] [g/100 ml]
1 | Cc1cccc(CN2CCN(C(c3ccccc3)c3ccc(Cl)cc3)CC2)c1 (stereo not shown) [meclizine, 1-(4-chlorobenzhydryl)-4-(3-methylbenzyl)-piperazine] | below the limit of detection | ~1500 (≈ 3840 µM) | ~3800 (≈ 9720 µM) | improved solubility | ~300 (≈ 767 µM) | improved solubility | ~10 (≈ 25.6 µM) | up to 24 hours | –
2 | Cc1cccc(CN2CCN(C(c3ccccc3)c3ccc(Cl)cc3)CC2)c1.Cl.Cl (stereo not shown) [meclizine HCl, 1-(4-chlorobenzhydryl)-4-(3-methylbenzyl)-piperazine dihydrochloride] | – | – | – | – | – | – | – | – | 0.1
3 | CN1CCN(C(c2ccccc2)c2ccccc2)CC1 [cyclizine] | – | – | – | – | – | – | – | 1 to 2 h | –
